Data set [1] can be described thus: Solubility of proteinase inhibitors in water.
A further data set concerns p16^INK4a. The experiment in a line: Stabilization of p16INK4a by proteinase inhibitors in mtm lysis medium.
Data set [2] in a line: Stability of proteinase inhibitors in water.
Setting [3] is: inhibitor at the concentration listed in Table 2.

Structures are written as SMILES. Read-outs that look alike come from different tables or passages of the source. Where a SMILES comes first, the peptide text is derived from it. [ ]: non-standard residue; d: D form. The star is where a group is joined. Sta = CC(C)C[C@H](N)[C@@H](O)CC(=O)O; Isovaleryl = CC(C)CC(=O)*

For `CCCC[C@@H](C=O)NC(=O)[C@H](CC(C)C)NC(=O)OCc1ccccc1` [Calpeptin], in data set [1], the Solubility in water result is given as “good”. Moreover, in the data set on p16^INK4a (setting [3]), the “p16^INK4a stabilization in mtm Lysis medium” value (“p16^INK4a stabilization” below) is recorded as “no”. For the same compound, the stability in water result in data set [2] is given as “good”.
As for `CC(=O)N[C@@H](CC(C)C)C(=O)N[C@@H](CC(C)C)C(=O)N[C@H](C=O)CCCNC(=N)N` [Leupeptin], the Solubility in water entry in data set [1] was “good”. In addition, the “p16^INK4a stabilization” value in the data set on p16^INK4a (setting [3]) is recorded as “no”. In addition, in data set [2], the stability in water entry is listed as “good”.
For `O=S(=O)(F)Cc1ccccc1` [PMSF], in the data set on p16^INK4a (setting [3]), the “p16^INK4a stabilization” value is listed as “yes”.
On to `CC(C)C[C@H](NC(=O)N[C@H](C(=O)N[C@@H](CCC(N)=O)C(=O)N[C@@H](C)C=O)[C@@H]1CCNC(=N)N1)C(=O)O` [Elastatinal], for which the Solubility in water entry in data set [1] is “poor”. Besides, the “p16^INK4a stabilization” value with p16^INK4a (setting [3]) is listed as “no”. In addition, the stability in water entry in data set [2] is reported as “good”.
In the same order, the values of `c1cnc2c(c1)ccc1cccnc12` [o-Phenanthroline] are “bad”, “no” and “poor”.
In the same order, the values of `CC(C)C[C@H](NC(=O)[C@H]1O[C@@H]1C(=O)O)C(=O)NCCCCN=C(N)N` [E-64] are “good”, “no” and “good”.
On to `O=C(O)CN(CCN(CC(=O)O)CC(=O)O)CC(=O)O` [EDTA], for which, in the data set on p16^INK4a, the “p16^INK4a stabilization” value is “no”.
Regarding `CC(C)CC(=O)N[C@H](C(=O)N[C@H](C(=O)N[C@@H](CC(C)C)[C@@H](O)CC(=O)N[C@@H](C)C(=O)N[C@@H](CC(C)C)[C@@H](O)CC(=O)O)C(C)C)C(C)C` [Pepstatin A] (Isovaleryl-VV[Sta]A[Sta]-OH), the “p16^INK4a stabilization” value in the data set with p16^INK4a (setting [3]) is “no”.
For the compound `CCOC(=O)[C@@H]1O[C@H]1C(=O)NC(CC(C)C)C(=O)N1CCN(Cc2ccc(OC)c(OC)c2OC)CC1.CCOC(=O)[C@@H]1O[C@H]1C(=O)NC(CC(C)C)C(=O)N1CCN(Cc2ccc(OC)c(OC)c2OC)CC1.O=S(=O)(O)O` (stereo partly shown) [NCO-700], the Solubility in water entry in data set [1] is recorded as “poor”. Besides, the “p16^INK4a stabilization” value in the data set with p16^INK4a (setting [3]) is given as “no”. In addition, the stability in water result in data set [2] is given as “poor”.
On to `CC(C)C[C@H](NC(=O)[C@@H](O)[C@H](N)Cc1ccccc1)C(=O)O` [Bestatin], for which, in data set [1], the Solubility in water result is given as “good”. In the data set on p16^INK4a (setting [3]), the “p16^INK4a stabilization” value is on record as “no”. For the same compound, the stability in water entry in data set [2] is “good”.
Regarding `NCCc1ccc(S(=O)(=O)F)cc1` [Pefabloc= AEBSF, AEBSF], in the data set on p16^INK4a (setting [3]), the “p16^INK4a stabilization” value was “yes”.
`N=C(N)c1ccccc1` [Benzamidine]: in data set [1], the Solubility in water entry is on record as “good”. Besides, in the data set on p16^INK4a (setting [3]), the “p16^INK4a stabilization” value is on record as “no”. The stability in water result in data set [2] is “good”.
As to `CCOC(=O)[C@H]1O[C@@H]1C(=O)N[C@@H](CC(C)C)C(=O)NCCC(C)C` [EST], the Solubility in water entry in data set [1] is on record as “bad”. In addition, in the data set with p16^INK4a (setting [3]), the “p16^INK4a stabilization” value is recorded as “no”. Further, the stability in water entry in data set [2] was “poor”.

For the origin of these results see patent EP1628135A1, “Method for detecting medically relevant conditions in a solubilized LBC sample” (MTM Laboratories AG, priority 2004, dated 2006).
